Data published in patent EP4556003A1, “ANTI-OBESITY AND ANTI-DIABETIC ACTIVITY OF BROMINATED DITERPENES FROM RED ALGAE OF THE GENUS LAURENCIA AND APPLICATIONS THEREOF” (priority 2023, dated 2025).

Columns and labels:
[1] = system: 3T3-L1 cells; assay: MTT cell viability / proliferation assay; format: cell-based, Mouse
Procedure: The cell viability was evaluated using the MTT assay. 3T3-L1 cells were seeded at a density of 1×10^3 in 96-well plates and incubated for 24h. Compounds 1 and 2 were added in the wells at various concentrations and then incubated at 37 °C. Cells were treated with compound 1 at concentrations of 62.5, 46.875, 31.25, 15.625, 7.81 and 3.9 µM. Cells were treated with compound 2 at concentrations of 62.5, 25.0, 12.5, 6.25 and 3.125 µM. After 24, 48, and 72 h of treatment, MTT solution was added in the wells at a final concentration of 0.5 mg/mL and incubated for 4 h. Cell culture media with MTT was removed and the formazan crystals were dissolved in 100 µl/well isopropanol/HCl (0.4%) and the absorbance was measured at 600 nm using the Infinite® 200 PRO microplate plate reader (Tecan, Zurich, Switzerland).

[2] = system: 3T3-L1 adipocytes; assay: Oil red o staining of intracellular lipid accumulation; format: cell-based, Mouse; conditions: differentiation induced in the presence of compound, after 12 days; 1 at 62.5 µM, 2 at 25 µM
Procedure: Mouse 3T3-L1 preadipocytes were maintained in proliferation medium containing DMEM supplemented with 10% (v/v) heat inactivated NBCS and 1% (v/v) penicillin-streptomycin at 37 °C with 5% CO2, humidified atmosphere. Cells were seeded in T-75 flasks at a density of 25×10^4 cells/flask. Cultures never became completely confluent according to the manufacturer's instructions. They were passaged using trypsin-EDTA solution once they reached 70-80% confluency. For differentiation, 3T3-L1 cells were seeded and after 24 h (day 1), cell differentiation was induced by changing the medium to high glucose DMEM containing 10% (v/v) heat inactivated FBS, 1% penicillin-streptomycin, 10 µg/mL insulin, 0.25 µM Dexamethasone (GAP), 0.5 mM IBMX (=differentiation medium I). On day 3, the medium was changed to high glucose DMEM containing 10% FBS, 1% penicillin- streptomycin, and 10 µg/mL insulin (=differentiation medium II). Thereafter, medium was changed every other day switching between differentiation medium I and differentiation medium II until day 12 or 23, when adipocytes were harvested. Control group preadipocytes were seeded at a higher density and harvested after two days. Test compounds were administered either at the initiation of differentiation, or after 15 days of differentiation and with every medium change. To determine the effect on preadipocyte differentiation, cells were seeded and after 24 h they were treated with neorogioldiol. Neorogioldiol was maintained in the culture medium throughout cell differentiation period. To determine the effect of neorogioldiol on mature adipocytes, cells were seeded and induced to differentiate for 14 days, then on day 15 neorogioldiol was added to the differentiation medium for 24 h before cells were harvested. Each compound used was diluted in a 90% carbowax™ 400, 10% (v/v) absolute ethanol solution serving as a control solvent. The final concentration in culture was 0.09% (v/v) carbowax and 0.01% (v/v) ethanol. […]
Oil red o staining was applied to measure lipid accumulation intracellularly. Briefly, after 12 or 23 days of differentiation, the cell culture medium was removed and the 3T3-L1 adipocytes were fixed in 3.7% formaldehyde for 60 min at room temperature. Next, a solution of 0.21% oil red o was filtered using a 0.45 µm filter followed by incubation of the fixed cells for 45 min at room temperature. Excess dye was removed and cells were washed twice with PBS. Fresh PBS was added and the lipid droplets within the differentiated 3T3-L1 cells were visualized and photographed by microscopy. For quantitative analysis, oil red o staining was eluted with 100% isopropanol and the absorbance was measured at 510 nm using the Infinite® 200 PRO microplate plate reader (Tecan, Zurich, Switzerland).

[3] = system: 3T3-L1 cells; assay: Quantitative PCR of relative mRNA expression in cell culture samples; format: cell-based, Mouse; conditions: cells differentiated in the presence of compound, 12 days; 1 at 62.5 µM, 2 at 25 µM
Procedure: Mouse 3T3-L1 preadipocytes were maintained in proliferation medium containing DMEM supplemented with 10% (v/v) heat inactivated NBCS and 1% (v/v) penicillin-streptomycin at 37 °C with 5% CO2, humidified atmosphere. Cells were seeded in T-75 flasks at a density of 25×10^4 cells/flask. Cultures never became completely confluent according to the manufacturer's instructions. They were passaged using trypsin-EDTA solution once they reached 70-80% confluency. For differentiation, 3T3-L1 cells were seeded and after 24 h (day 1), cell differentiation was induced by changing the medium to high glucose DMEM containing 10% (v/v) heat inactivated FBS, 1% penicillin-streptomycin, 10 µg/mL insulin, 0.25 µM Dexamethasone (GAP), 0.5 mM IBMX (=differentiation medium I). On day 3, the medium was changed to high glucose DMEM containing 10% FBS, 1% penicillin- streptomycin, and 10 µg/mL insulin (=differentiation medium II). Thereafter, medium was changed every other day switching between differentiation medium I and differentiation medium II until day 12 or 23, when adipocytes were harvested. Control group preadipocytes were seeded at a higher density and harvested after two days. Test compounds were administered either at the initiation of differentiation, or after 15 days of differentiation and with every medium change. To determine the effect on preadipocyte differentiation, cells were seeded and after 24 h they were treated with neorogioldiol. Neorogioldiol was maintained in the culture medium throughout cell differentiation period. To determine the effect of neorogioldiol on mature adipocytes, cells were seeded and induced to differentiate for 14 days, then on day 15 neorogioldiol was added to the differentiation medium for 24 h before cells were harvested. Each compound used was diluted in a 90% carbowax™ 400, 10% (v/v) absolute ethanol solution serving as a control solvent. The final concentration in culture was 0.09% (v/v) carbowax and 0.01% (v/v) ethanol. Compounds were used at the following concentrations: neorogioldiol (1) 62.5µM and neorogioltriol (2) 25µM.
Adipocytes and preadipocytes were harvested using the TRI Reagent®. RNA isolation was carried out according to the manufacturer's instructions. The purified RNA was quantified using the Nanodrop micro-volume spectrophotometer and 500 ng of each sample were used as a template for reverse transcription. cDNA synthesis was performed using the PrimeScriptTM RT reagent Kit (TaKaRa, RR037A) according to manufacturer's instructions. The cDNA produced by the above described procedure was diluted and used as a template for two-step quantitative PCR in a StepOnePlus™ Real-Time PCR System (Applied Biosystems™, 4376600) for a maximum of 40 cycles, as follows: start step 95 °C for 3 min, repeat steps: 95 °C for 15 s and 60 °C for 30 s. Amplification was performed using KAPA SYBR® FAST Universal qPCR kit (Kapa Biosystems, KK4618) according to manufacturer's instructions. Relative quantitative analysis was accomplished calculating fold-changes of gene expression as 2-(ΔΔCt), where ΔCt is (Ct (gene of interest) - Ct (housekeeping gene)). Ppib was used as internal control gene in 3T3L1 cells and in the fat fraction of mice abdominal fat, Rps9 was used as internal control gene in the stromal vascular fraction of mice abdominal fat and Actb was used as internal control gene in liver samples. Table 1. List of primers used for quantitative real-time PCR analysis.

[4] = references [10, 11]; cited from earlier work
[5] = system: NFKB1; conditions: in vitro model, reference [11]; cited from earlier work
[6] = system: COX2; conditions: in vitro model, reference [11]; cited from earlier work
[7] = reference [12]; cited from earlier work

Row | Molecule | concentrations that did not exhibit cytotoxicity ([1]; concentration chosen for further analyses) | concentration with cytostatic effects ([1]; three-day incubation (24, 48, 72 h), compound 1: after the first 24 h of treatment) | lipid accumulation [2] | Adipoq expression levels [3] | Dlkl mRNA expression [3] | Lep expression levels [3] | Slc2a4 expression levels [3] | analgesic properties in vivo [4] | anti-inflammatory properties in vivo [4] | NFKB1 levels [5] | COX2 levels [6] | anti-inflammatory activity [7]
1 | C=C([C@H]1CC[C@@](C)(O)[C@@H](Br)C1)[C@H]1[C@H](O)[C@@H]2[C@@H](CC[C@@]2(C)O)C1(C)C [neorogioltriol] | 25 µM | above 25 µM | increased lipid accumulation | restricted the increase | did not change | restricted the increase | restricted the increase | potent | potent | reducing | reducing | –
2 | O^11,15-cyclo-14-bromo-14,15-dihydrorogiol-3,11-diol | – | – | – | – | – | – | – | – | – | – | – | potent anti-inflammatory activity
